According to US20170067909A1, “ASSAY-READY RECOMBINANT CELLS TRANSIENTLY OVEREXPRESSING GENES ENCODING DRUG TRANSPORTER PROTEINS AND/OR DRUG METABOLIZING ENZYMES” (Corning Incorporated, priority 2012, published 2017):
Positions count from the first letter of the chain named.

How the values were obtained:
OATP1B1*15 = target: T1, OATP1B1*15 (Homo sapiens, UniProt Q9Y6L6, N130D/V174A); test: OATP1B1 single nucleotide polymorphism panel uptake assay, OATP1B1*15 HEK-293 cells
T1 sequence (Q9Y6L6 1-691 N130D/V174A): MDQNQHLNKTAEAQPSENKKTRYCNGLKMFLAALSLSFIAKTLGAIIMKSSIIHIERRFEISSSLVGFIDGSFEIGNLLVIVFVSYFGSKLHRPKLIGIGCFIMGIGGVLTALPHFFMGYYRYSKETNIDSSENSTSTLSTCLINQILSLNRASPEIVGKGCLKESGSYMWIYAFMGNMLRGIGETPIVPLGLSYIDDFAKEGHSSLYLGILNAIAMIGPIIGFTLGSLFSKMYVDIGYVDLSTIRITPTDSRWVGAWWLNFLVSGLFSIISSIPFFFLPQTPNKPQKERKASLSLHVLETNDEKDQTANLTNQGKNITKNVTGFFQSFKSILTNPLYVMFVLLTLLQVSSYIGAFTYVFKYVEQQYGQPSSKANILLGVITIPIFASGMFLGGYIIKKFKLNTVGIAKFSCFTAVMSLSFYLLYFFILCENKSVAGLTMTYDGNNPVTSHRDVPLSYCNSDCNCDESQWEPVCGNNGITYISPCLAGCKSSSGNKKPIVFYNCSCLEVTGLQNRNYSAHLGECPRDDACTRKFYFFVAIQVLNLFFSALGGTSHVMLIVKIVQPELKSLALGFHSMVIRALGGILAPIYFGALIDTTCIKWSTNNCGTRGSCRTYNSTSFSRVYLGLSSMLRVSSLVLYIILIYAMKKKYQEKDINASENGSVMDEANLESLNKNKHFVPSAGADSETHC

[1] = target: T2, Organic Anion-Transporting Polypeptide 1B1 (Homo sapiens, UniProt Q9Y6L6); test: Suspension assay, vacuum manifold, Corning TransportoCells OATP1B1*1a; format: in vitro ADME; settings: 5× substrate solution containing 25 μM, 10 minutes at 37° C., 600 k cells/well
T2 construct: host or cells: HEK293 cells, gene delivered by electroporation
T2 sequence (Q9Y6L6 1-691): T1 sequence (Q9Y6L6 1-691 N130D/V174A) with D130N, A174V
Text: In this experiment, a suspension assay for characterizing the activity of a drug transporter protein in cryopreserved, Corning® TransportoCells™ was developed. More specifically, the use of a centrifugation method versus a vacuum manifold for separating unreacted substrate in characterizing the activity of Organic Anion-Transporting Polypeptide 1B1 was investigated. Corning® TransportoCells™ transiently transfected with the gene OATP1B1*1a were obtained from Corning Life Sciences (Cat. No. 354859). In the Corning® TransportoCells™, the gene OATP1B1*1a was delivered into HEK293 cells via electroporation and the HEK293 cells were recovered and cryopreserved 1 hour post-electroporation. In order to obtain suitable expression of the Organic Anion-Transporting Polypeptide 1B1 encoded by OATP1B1*1a, the Corning® TransportoCells™ were thawed, cultured, and harvested.
The cells were cultured in T-175 Vented-Cap Culture Flasks with Poly-D-Lysine (hereinafter, “PDL”; available from Corning Life Sciences, Cat. No. 354539) with plating medium for 48 hours at 37° C. and 8% CO2. The plating medium is detailed in Table 16. After 24 hours, sodium butyrate (obtained from Sigma) was added to the cells to reach final 5 mM. After 48 hours, the cells were rinsed twice with Phosphate-Buffered Saline (hereinafter, “PBS”, obtained from Corning).
The cells were then harvested with 0.05% Trypsin (obtained from Sigma) and washed once with Hank's Balanced Salt Solution (hereinafter, “HBSS”) buffer (with Ca^2+ and Mg^2+, obtained from Corning). Then, the cells were resuspended in HBSS (obtained from Corning) to a final cell density of 3×10^6 cells/ml. […]
Then, the cells were transferred to FiltrEX™ 96 Well Filter Plates with 0.66 mm Thick Glass Fiber Filter (available from Corning Life Sciences, Cat. No. 3511) and a vacuum was applied. […] The cell lysis was then subjected to the appropriate protein analysis and/or fluorescence analysis to characterize the activity of Organic Anion-Transporting Polypeptide 1B1.

| Compound | uptake activity / transport compared to OATP1B1*1a cells (in words) (OATP1B1*15) | Uptake Activity OATP1B1 [1] [pmol/mg/min] | Uptake Ratio [1] |
| --- | --- | --- | --- |
| C[C@]12CC[C@@H]3c4ccc(O)cc4CC[C@H]3[C@@H]1CC[C@@H]2O[C@@H]1O[C@H](C(=O)O)[C@@H](O)[C@H](O)[C@H]1O [E17βG] | Significantly impaired transport | 2.19 |  |
| fluorescein methotrexate [FMTX] | Significantly impaired transport | 0.46 | 6.8 |
